Results: patent US20170027902A1, “Use of a Composition Comprising a Flavonol, A Flavonoid, and a Fatty Acid in the Treatment of Oxidative Injuries Due to Mitochondrial Dysfunction” (priority 2014, published 2017)

Tested on: primary mouse cortical cultures
Assay: Confocal imaging of calcium transients and mitochondrial membrane potential
Format: cell-based
Details: for number of neurons displaying elevated [Ca2+]c / oscillations: 3 μg/ml (~10 μM); for number / frequency of [Ca2+]c oscillations in cortical neurons: Q 3 μg/ml added after pretreatment with E 3 μg/ml
Description: Embryonic day 16 timed pregnant CD1 out-bred mice were obtained from Charles River Laboratories (Charles River; QC, Canada). Primary cortical neuron cultures were prepared from cerebral cortices of wild type (WT) CD1 mouse embryos as described previously, with the following modifications. Pregnant CD1 females were heavily anaesthetized with isoflurane vapor (Benson Medical Industries, Inc., Markham, ON) before being euthanized by decapitation. The embryonic day 16 (E16) fetuses were immediately removed from the sacrificed pregnant females by cesarean section and placed in ice-cold Hank's Balanced Salt Solution (HBSS) (GIBCO; Invitrogen, Amarillo, Calif.). The meninges were removed from the brains and cortices were isolated under a dissecting microscope. The cortices from each embryo were placed in individual wells of a 24-well plate (Corning; Lowell, Mass.), containing 1 ml of ice-cold PBS (GIBCO; […] Under sterile conditions, the tissue was briefly minced, transferred to 15 ml sterile conical tubes (Corning; Lowell, Mass.) and centrifuged at 350×g for 3 min at room temperature. The dissecting solution was discarded and the cortical neurons were then dissociated trituration with fire-polished glass pipettes followed by incubating in 1 ml of 0.1% trypsin solution (0.1% w/v trypsin (Invitrogen, Amarillo, Calif.) in PBS with 1 mM Mg^2+ and 13 mM glucose) at 37° C. for 15 min. The trypsinization was inhibited by the addition of 0.5 ml of trypsin inhibitor solution that also contained DNase I (0.06% w/v trypsin inhibitor (Invitrogen; Amarillo, Calif.) and 0.01% DNase I (Invitrogen; […] The tubes were mixed briefly and the cells were centrifuged at 350×g for 3 min at room temperature. The trypsin and inhibitor solutions were discarded and each cell pellet was suspended in 1 ml of cortical neuron plating medium (Neurobasal medium (Invitrogen, Amarillo, Calif.) with 10% fetal bovine serum (GIBCO; Invitrogen; Amarillo, Calif.), 2% B27 supplement, 1 mM L-glutamine, and 1% Gentamycin (Invitrogen; […] Cortical neurons were plated in 96-well plates (Corning; Lowell, Mass.) that were pre-coated with poly-D-lysine (PDL; Sigma-Aldrich; Oakville, ON) according to the procedure described by the manufacturer. Briefly, plates were coated immediately before use with 100 μg/ml PDL for 5-10 min (50 μl/well), washed three times with tissue-culture grade water and left to dry for 2 h before cells were introduced. Cortical neurons were plated at a concentration of 1×10^6 cells/ml (100 µl/well) and medium was completely changed the day after plating to serum-free cortical neuron medium (Neurobasal medium with 2% B27 supplement, 5 mM HEPES, 0.5 mM L-glutamine, and 20 μg/ml Gentamycin), which was replaced every 3 days in culture. Cultures were maintained in a humidified, 37° C. incubator with 5% CO2. Experiments were performed on the eighth day in vitro (DIV10). For measurements of mitochondrial membrane potential (ΔΨm), cells were loaded with 25 nM tetrannethylrhodamine methyl ester (TMRM) for 30 min at room temperature and the dye was present during the experiment. TMRM is used in the redistribution mode to assess ΔΨm with a reduction in TMRM fluorescence indicating mitochondrial depolarization. Neurons were loaded for 30 min at room temperature with X-rhod-1 AM (0.5 μM) and Fluo-3 AM (0.5 μM) (Molecular Probes, Invitrogen) prior to imaging in HEPES-buffered salt solution (HBSS) composed of (mM): 156 NaCl, 3 KCl, 2 MgSO4, 1.25 KH2PO4, 2 CaCl2, 10 glucose and 10 HEPES, pH adjusted to 7.35 with NaOH. Confocal images were obtained using a 510 CLSM (Zeiss, Thornwood, N.Y.) equipped with a META detection system and a […] oil-immersion objective. The 488 nm Argon laser line was used to excite fluo-3 fluorescence, which was measured using a bandpass filter from 505 to 550 nm. Illumination intensity was kept to a minimum (at 0.1-0.2% of laser output) to avoid phototoxicity and the pinhole was set to give an optical slice of 2 μm. […]

[1] = ten minutes after addition, fluo-3
[2] = sequential addition of 0.3 and 1 μM

Compound | [Ca2+]c oscillations in a cortical neuron (3 μg/ml (~10 μM) alone) | [Ca2+]m (mitochondrial) oscillations, x-rhod-1 (3 μg/ml (~10 μM) alone) | [Ca2+]c oscillations in a cortical neuron (3 μg/ml (~10 μM) alone, listed as epicatechin) | number of neurons displaying elevated [Ca2+]c / oscillations [1] | number of neurons displaying elevated [Ca2+]c / oscillations (ten minutes after addition, fluo-3, listed as epicatechin) | number / frequency of [Ca2+]c oscillations in cortical neurons | number of neurons displaying [Ca2+]c oscillations (1 μg/ml (~3 μM), ten minutes after addition, fluo-3) | number of neurons displaying [Ca2+]c oscillations (1 μg/ml (~3 μM), ten minutes after addition, fluo-3, listed as quercetin) | number of neurons displaying elevated [Ca2+]c / oscillations (ten minutes after addition, fluo-3, listed as quercetin) | frequency of neuronal [Ca2+]c oscillations (1 and 3 μg/ml (~3-10 μM), concentration-dependent) | mitochondrial membrane potential (TMRM) (1 and 3 μg/ml (~3 and 10 μM)) | [Ca2+]m (mitochondrial) oscillations, x-rhod-1 (Q 3 μg/ml added after E 3 μg/ml) | number of neurons displaying [Ca2+]c oscillations (Q 3 μg/ml added after E 3 μg/ml, ten minutes later) | number of neurons displaying [Ca2+]c oscillations (Q 3 μg/ml added after E 3 μg/ml, ten minutes later, listed as quercetin) | [Ca2+]c oscillations (fluo-4) [2] | basal [Ca2+]c [2] | mitochondrial membrane potential (TMRM) [2]
Oc1cc(O)c2c(c1)O[C@H](c1ccc(O)c(O)c1)[C@H](O)C2 [E, (2R,3R)-2-(3,4-dihydroxyphenyl)-3,4-dihydro-2H-chromene-3,5,7-triol] | did not trigger | did not trigger | did not increase | no change | did not increase | enhanced the frequency | – | – | – | – | – | – | – | – | – | – | –
O=c1c(O)c(-c2ccc(O)c(O)c2)oc2cc(O)cc(O)c12 [Q] | – | – | – | further elevation | – | supra-additive increase | small increase | increased | increased | increased the frequency | modestly elevated | induction | did increase | increased | concentration dependent stimulation | moderate rise | elevation
